# Where two headings read alike, the source gives them in different places.
# Assays:
# [1] = test system: panel of 37 other receptors; design: method as in PMID 15231488; settings: 10 μM; cited from earlier work
# [2] = test system: human bronchial epithelial cells; design: method as in PMID 15231488; settings: ex vivo; cited from earlier work
# hP2Y2R = target: T1, hP2Y2R (Homo sapiens, UniProt P41231); experiment: Calcium-mobilization assay in P2Y2-1321N1 cells (antagonism of UTPγS); assay type: cell-based; settings: for Kb: Gaddum equation
# T1 construct: The 1321N1 cells expressing wild-type P2Y2R (P2Y2R-1321N1) were gifted by Dr. Elizabeth Rosethorne; expressed in transfected cells; host or cells: 1321N1 astrocytoma cells (P2Y2R-1321N1), gifted
# T1 sequence (P41231 whole entry): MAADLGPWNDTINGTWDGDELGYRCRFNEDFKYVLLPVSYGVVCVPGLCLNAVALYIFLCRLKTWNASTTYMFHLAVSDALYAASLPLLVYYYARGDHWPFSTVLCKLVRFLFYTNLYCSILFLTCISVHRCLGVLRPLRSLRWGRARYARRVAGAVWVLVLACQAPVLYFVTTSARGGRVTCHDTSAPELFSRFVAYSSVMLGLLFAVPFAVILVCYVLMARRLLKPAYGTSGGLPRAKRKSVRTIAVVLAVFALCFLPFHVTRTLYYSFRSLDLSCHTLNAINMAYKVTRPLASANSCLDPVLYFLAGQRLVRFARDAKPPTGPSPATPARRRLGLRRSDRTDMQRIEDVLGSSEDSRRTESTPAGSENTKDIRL
# hP2Y2 = test system: hP2Y2; design: method as in PMID 28958619; settings: cited from earlier work
# NLuc-P2Y2R [3] = target: T2, NLuc-P2Y2R (Homo sapiens, UniProt P41231); experiment: NanoBRET competition binding in NLuc-P2Y2 1321N1 cells; settings: Table 7, competition binding with fluorescent ligand 98, mean ± SEM
# T2 construct: expressed in transfected cells
# T2 sequence (P41231 2-377 limits assumed): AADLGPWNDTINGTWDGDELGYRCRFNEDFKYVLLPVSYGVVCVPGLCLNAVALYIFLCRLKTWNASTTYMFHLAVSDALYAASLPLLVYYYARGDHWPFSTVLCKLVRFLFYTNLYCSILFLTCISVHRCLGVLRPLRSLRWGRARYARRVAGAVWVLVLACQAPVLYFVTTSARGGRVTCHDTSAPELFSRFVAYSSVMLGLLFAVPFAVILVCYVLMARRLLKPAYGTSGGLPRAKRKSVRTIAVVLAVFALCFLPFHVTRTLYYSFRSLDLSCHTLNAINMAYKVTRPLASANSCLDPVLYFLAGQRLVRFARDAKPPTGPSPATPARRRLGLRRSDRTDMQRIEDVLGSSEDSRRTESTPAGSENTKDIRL
# NLuc-P2Y2R [4] = target: T2, NLuc-P2Y2R; experiment: Calcium signal of NLuc-tagged P2Y2 receptors in 1321N1 cells; assay type: cell-based; settings: n = 3, read-out: UTPγS EC50 (calcium signal)
# Procedure: To create the NLuc-P2Y2R constructs, human P2Y2R DNA (obtained from the Missouri S&T cDNA Resource Center) was amplified by PCR to remove the methionine start signal and cloned into pCR2.1 (linearized vector, Invitrogen). P2Y2R was then subcloned in-frame with the membrane-signal sequence of the 5HT3A receptor and the full-length sequence of nanoluciferase.
# P2Y2-1321N1 cells seeded into black-sided 96-well view plates were incubated at 37 °C without CO2 for 45 min in a total volume of 100 μL of a HEPES-buffered saline solution (HBSS; 10 mM HEPES, 10 mM glucose, 145 mM NaCl, 5 mM KCl, 1 mM MgSO4, 2 mM sodium pyruvate, and 1.3 mM CaCl2) containing 2.5 mM probenecid, 2.3 μM Fluo 4AM, 0.023% pluronic acid, 0.5 mM Brilliant Black, 1 U/mL apyrase, and the ligand under investigation or the vehicle. The plates were then loaded onto a plate reader (FLEXstation, Molecular Devices), and the fluorescence was measured (excitation: 485 nm, emission: 525 nm) every 1.52 s for up to 200 s after the addition of UTPγS at 15 s. For the investigation of the BODIPYFL-labeled ligands, Fluo 4AM was replaced with 2.0 μM X-Rhod-1 AM (excitation: 584 nm, emission: 612 nm).
# [5] = Table 7, shift of agonist dose–response curve by a single antagonist concentration, mean ± SEM, read-out: pKb Ca2+ mobilization (converted)
smiles,measurement,setting,value
Cc1ccc2c(c1)C=Cc1cc(C)ccc1C2c1cn(Cc2ccc(C(=O)Nc3nnn[nH]3)o2)c(=O)[nH]c1=S [Example 1],activity against a panel of 37 other receptors,[1],inactive
same,antagonism of ATPγS-induced mucin secretion,[2],concentration-dependently antagonize
"Cc1ccc2c(c1)C=Cc1cc(C)ccc1C2c1cn(Cc2nc(C(=O)O)cs2)c(=O)[nH]c1=S [Example 2, 2-((5-(2,8-dimethyl-5H-dibenzo[a,d][7]annulen-5-yl)-2-oxo-4-thioxo-3,4-dihydropyrimidin-1(2H)-yl)methyl)thiazole-4-carboxylic acid]",Kb,"hP2Y2R; Table 1, shift of UTPγS concentration–response curve by a single antagonist concentration, mean ± SEM, read-out: hP2Y2 pKb (converted)",372 nM
same,pA2 (literature/reported value),hP2Y2,c The literature value is pA2 = 5.7.[8]
"Cc1ccc2c(c1)C=Cc1cc(C)ccc1C2c1cn(Cc2cc(C(=O)O)cc(C(=O)O)c2)c(=O)[nH]c1=S [Example 60, 5-((5-(2,8-Dimethyl-5H-dibenzo[a,d][7]annulen-5-yl)-2-oxo-4-thioxo-3,4-dihydropyrimidin-1(2H)-yl)methyl)isophthalic Acid]",Kb,hP2Y2R; [5],295 nM
same,Kd,"hP2Y2R; quoted in text for nonfluorescent antagonists, mean ± SEM, read-out: hP2Y2R affinity pKd (converted)",295 nM
same,Ki,NLuc-P2Y2R [3]; read-out: pKi NanoBRET (98) (converted),145 nM
"O=c1[nH]c(=S)c(C2c3ccccc3CCc3ccccc32)cn1[C@@H]1O[C@H](COP(=O)([O-])OP(=O)([O-])C(Cl)(Cl)P(=O)([O-])[O-])[C@@H](O)[C@H]1O.[Na+].[Na+].[Na+].[Na+] [Example 99, reference compound]",Kb,hP2Y2R; [5],257 nM
same,pA2 (literature/reported value),hP2Y2,d Reported pA2 = 8.0.[8]
"O=c1ccn([C@@H]2O[C@H](COP(=O)(O)OP(=O)(O)OP(O)(O)=S)[C@@H](O)[C@H]2O)c(=O)[nH]1 [UTPγS, uridine-5′-(γ-thio)-triphosphate, reference compound]",EC50,"hP2Y2R; agonist, calcium mobilization, n = 25",7.9 nM
same,EC50,NLuc-P2Y2R [4],91 ± 12 nM
same,pKi NanoBRET (98),NLuc-P2Y2R [3],5.46 ± 0.04 (6)

# Source: paper PMC6026847, “Synthesis and Evaluation of the First Fluorescent Antagonists of the Human P2Y2 Receptor Based on AR-C118925” (Journal of Medicinal Chemistry, 2018)
